Source: US8119624B2, “Fused phenyl amido heterocyclic compounds” (Pfizer Inc., priority 2006, dated 2012)

Target: T1, Full-length glucokinase (beta cell isoform) (Homo sapiens, UniProt P35557)
T1 construct: Full-length glucokinase (beta cell isoform) was His-tagged at N-terminus; His tag (N); made in house
T1 sequence (P35557 1-465): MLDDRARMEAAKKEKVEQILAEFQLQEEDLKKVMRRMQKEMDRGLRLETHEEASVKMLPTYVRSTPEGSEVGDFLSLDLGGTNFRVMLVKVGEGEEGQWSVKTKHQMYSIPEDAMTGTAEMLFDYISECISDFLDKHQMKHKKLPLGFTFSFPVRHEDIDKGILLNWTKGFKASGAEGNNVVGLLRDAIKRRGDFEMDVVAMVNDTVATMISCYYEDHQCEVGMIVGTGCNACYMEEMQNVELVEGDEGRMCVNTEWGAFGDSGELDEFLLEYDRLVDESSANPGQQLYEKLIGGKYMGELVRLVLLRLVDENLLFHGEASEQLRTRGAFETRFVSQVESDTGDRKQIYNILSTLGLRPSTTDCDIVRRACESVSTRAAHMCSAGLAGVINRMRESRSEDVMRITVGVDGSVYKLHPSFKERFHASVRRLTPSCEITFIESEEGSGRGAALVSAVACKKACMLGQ
Assay: Glucokinase biochemical assay (PK/LDH-coupled, NADH depletion at 340 nm): % activation, EC50, % max activation
Settings: 5 mM glucose; for activation at 10 µM / % Activation at 10 uM: 10 uM compound, % Activation=(Va/Vo−1)×100; for activation at 10 µM: read-out: % Activation at 10 uM; for EC50: GK activation, read-out: EC50; for Emax / % Max Activation: fitted maximum activation; for Emax: read-out: % Max Activation
Procedure: Full-length glucokinase (beta cell isoform) was His-tagged at N-terminus and purified by a Ni column followed by size exclusion chromatography. Glucose was obtained from Calbiochem, and other reagents were from Sigma.
All assays were performed in a Corning 96-well plate using Spectramax PLUS spectrophotometer (Molecular Devices) at room temperature. The final assay volume was 100 uL. The buffer conditions used in this assay were as follows: 50 mM HEPES, 5 mM glucose, 1 mM ATP, 2 mM MgCl2, 0.7mM NADH, 2 mM DTT, 1 Unit/mL PK/LDH, 0.2 mM phosphoenolpyruvate, 25 mM KCl. Tested compound in DMSO solution was added to the buffer and mixed well by a plate shaker for 1 minute. The final concentration of DMSO introduced into the assay was 1%.
Glucokinase was added to the buffer mixture to initiate the reaction in the presence and absence of compound. Reaction was monitored by absorbance at 340nm due to the depletion of NADH. The initial reaction velocity was measured by the slope of a linear time course of 200-900 sec.
The percentage of activation was calculated by the following equation: % Activation=(Va/Vo−1)×100;
wherein each of Va and Vo is defined as the initial reaction velocity in the presence and absence of the tested compound, respectively.
The GK activities were measured as a function of compound concentrations.

Question: `CN(C)C(=O)c1ccc(Oc2cc(C(=O)Nc3ccn(C)n3)cc3c2CC(C)(C)O3)cc1F` [Example 54, 4-(4-Dimethylcarbamoyl-3-fluoro-phenoxy)-2,2-dimethyl-2,3-dihydro-benzofuran-6-carboxylic acid(1-methyl-1H-pyrazol-3-yl)-amide] was tested. Which activation at 10 µM did it give?
Answer: 83.3%

Question: And the EC50?
Answer: 80.7 nM

Question: And the Emax?
Answer: 101%

Question: For `Cc1cc2c(Oc3ccc(S(=O)(=O)N4CCC4)cc3)cc(C(=O)Nc3ccccn3)cc2o1` [Example 296, 4-(4-(Azetidin-1-ylsulfonyl)phenoxy)-2-methyl-N-(pyridin-2-yl)benzofuran-6-carboxamide], which activation at 10 µM is on record?
Answer: 70%

Question: And the EC50?
Answer: 200 nM

Question: What about the Emax of the same compound?
Answer: 77%

Question: `COc1cnc(NC(=O)c2cc(Oc3ccc(S(=O)(=O)N4CCC4)cc3)c3cc(C)oc3c2)cn1` [Example 303, 4-(4-(Azetidin-1-ylsulfonyl)phenoxy)-N-(5-methoxypyrazin-2-yl)-2-methyl-benzofuran-6-carboxamide] was tested. Which activation at 10 µM did it give?
Answer: 195%

Question: And the EC50?
Answer: 650 nM

Question: What about the Emax of the same compound?
Answer: 179%

Question: With `Cn1cc(C(=O)COc2cc(C(=O)Nc3ccn(C)n3)cc3c2CC(C)(C)O3)cn1` [Example 105, 2,2-Dimethyl-4-[2-(1-methyl-1H-pyrazol-4-yl)-2-oxo-ethoxy]-2,3-dihydro-benzofuran-6-carboxylic acid (1-methyl-1H-pyrazol-3-yl)-amide] as the compound, how does the activation at 10 µM read?
Answer: 70.1%

Question: What about the EC50 of the same compound?
Answer: 9400 nM

Question: And the Emax?
Answer: 102%

Question: How did the activation at 10 µM turn out when `COCC1(C)Cc2c(Oc3cc(F)ccc3S(C)(=O)=O)cc(C(=O)Nc3ccn(C)n3)cc2O1` (stereo not drawn) [Example 238, 4-(5-Fluoro-2-methanesulfonyl-phenoxy)-2-methoxymethyl-2-methyl-2,3-dihydro-benzofuran-6-carboxylic acid (1-methyl-1H-pyrazol-3-yl)-amide] was run?
Answer: 89.8%

Question: What about the EC50 of the same compound?
Answer: > 10000 nM

Question: How did the activation at 10 µM turn out when `Cn1ccc(NC(=O)c2cc(Oc3ccc(C(=O)N4CCC4)nc3)c3c(c2)OC(C)(C)C3)n1` [Example 167, 4-[6-(Azetidine-1-carbonyl)-pyridin-3-yloxy]-2,2-dimethyl-2,3-dihydro-benzofuran-6-carboxylic acid (1-methyl-1H-pyrazol-3-yl)-amide] was run?
Answer: 148%

Question: What about the EC50 of the same compound?
Answer: 55.3 nM

Question: And the Emax?
Answer: 146%

Question: How did the activation at 10 µM turn out when `Cc1cc2c(Oc3ccc(S(C)(=O)=O)cc3)cc(C(=O)Nc3cnn(C)n3)cc2o1` [Example 267, 2-Methyl-N-(2-methyl-2H-1,2,3-triazol-4-yl)-4-(4-(methylsulfonyl)phenoxy)-benzofuran-6-carboxamide] was run?
Answer: 145%

Question: And the EC50?
Answer: 1700 nM

Question: And the Emax?
Answer: 165%

Question: Which results are given for `Cc1ccc(NC(=O)c2cc(OC(C)C)cc3occc23)nc1` [Example 344, 6-Isopropoxy-N-(5-methylpyridin-2-yl)benzofuran-4-carboxamide]?
Answer: activation at 10 µM: 89.5%; EC50: 1400 nM; Emax: 106%

Question: `Cc1ccc(NC(=O)c2cc(Oc3ccc(S(C)(=O)=O)cc3)c3ccoc3c2)nc1` [Example 9, 4-(4-Methanesulfonyl-phenoxy)-benzofuran-6-carboxylic acid(5-methyl-pyridin-2-yl)-amide] was tested. Which activation at 10 µM did it give?
Answer: 72.7%

Question: And the EC50?
Answer: 3080 nM

Question: And the Emax?
Answer: 94.7%

Question: For `CNC(=O)c1ccc(Oc2cc(C(=O)Nc3cnn(C)n3)cc3c2CC(C)(C)O3)cn1` [Example 170, 5-[2,2-Dimethyl-6-(2-methyl-2H-[1,2,3]triazol-4-ylcarbamoyl)-2,3-dihydro-benzofuran-4-yloxy]-pyridine-2-carboxylic acid methylamide], which activation at 10 µM is on record?
Answer: 264%

Question: And the EC50?
Answer: 300 nM

Question: What about the Emax of the same compound?
Answer: 255%

Question: What does the source list for `Cn1ccc(NC(=O)c2cc(Oc3ccc(S(C)(=O)=O)cc3)c3c(c2)OC(C(F)F)C3)n1` (stereo not drawn) [Example 225, 2-Difluoromethyl-4-(4-methanesulfonyl-phenoxy)-2,3-dihydro-benzofuran-6-carboxylic acid (1-methyl-1H-pyrazol-3-yl)-amide]?
Answer: activation at 10 µM: 103%; EC50: 2930 nM; Emax: 242%

Question: What does the source list for `Cn1ccc(NC(=O)c2cc(Oc3cnc(C(=O)N4CCC4)c(F)c3)c3c(c2)OC(C)(C)C3)n1` [Example 173, 4-[6-(Azetidine-1-carbonyl)-5-fluoro-pyridin-3-yloxy]-2,2-dimethyl-2,3-dihydro-benzofuran-6-carboxylic acid (1-methyl-1H-pyrazol-3-yl)-amide]?
Answer: activation at 10 µM: 159%; EC50: 68 nM; Emax: 148%

Question: With `Cn1ccc(NC(=O)c2cc(Oc3ccc(CO)cc3F)c3c(c2)OC(C)(C)C3)n1` [Example 40, 4-(2-Fluoro-4-hydroxymethyl-phenoxy)-2,2-dimethyl-2,3-dihydro-benzofuran-6-carboxylic acid(1-methyl-1H-pyrazol-3-yl)-amide] as the compound, how does the “% Activation at 10 uM” value read?
Answer: 109%

Question: What about the EC50 of the same compound?
Answer: 3600 nM

Question: What about the “% Max Activation” value of the same compound?
Answer: 150%

Question: Which results are given for `CN(C)C(=O)c1ccc(Oc2cc(C(=O)Nc3ccn(C)n3)cc3c2CC(C)(C)O3)cn1` [Example 161, 5-[2,2-Dimethyl-6-(1-methyl-1H-pyrazol-3-ylcarbamoyl)-2,3-dihydro-benzofuran-4-yloxy]-pyridine-2-carboxylic acid dimethylamide]?
Answer: activation at 10 µM: 191%; EC50: 175 nM; Emax: 143%

Question: `COCC1Cc2c(Oc3ccc(C(=O)N(C)C)c(F)c3)cc(C(=O)Nc3ccn(C)n3)cc2O1` (single isomer, unassigned; (+)) [Example 207, (+)-4-(4-Dimethylcarbamoyl-3-fluoro-phenoxy)-2-methoxymethyl-2,3-dihydro-benzofuran-6-carboxylic acid (1-methyl-1H-pyrazol-3-yl)-amide] was tested. Which “% Activation at 10 uM” value did it give?
Answer: 127%

Question: What about the EC50 of the same compound?
Answer: 950 nM

Question: What about the “% Max Activation” value of the same compound?
Answer: 142%

Question: With `Cn1ccc(NC(=O)c2cc(Oc3ccc(C(=O)N4CCC4)cc3)c3c(c2)OC(C)(C)C3)n1` [Example 35, 4-[4-(Azetidine-1-carbonyl)-phenoxy]-2,2-dimethyl-2,3-dihydro-benzofuran-6-carboxylic acid(1-methyl-1H-pyrazol-3-yl)-amide] as the compound, how does the activation at 10 µM read?
Answer: 145%

Question: What about the EC50 of the same compound?
Answer: 105 nM

Question: And the Emax?
Answer: 145%

Question: `Cn1ccc(NC(=O)c2cc(Oc3ccc(S(C)(=O)=O)cc3)c3c(c2F)OC(C)(C)C3)n1` [Example 190, 7-Fluoro-4-(4-methanesulfonyl-phenoxy)-2,2-dimethyl-2,3-dihydro-benzofuran-6-carboxylic acid (1-methyl-1H-pyrazol-3-yl)-amide] was tested. Which activation at 10 µM did it give?
Answer: 83.9%

Question: What about the EC50 of the same compound?
Answer: 7300 nM

Question: What about the Emax of the same compound?
Answer: 138%

Question: How did the activation at 10 µM turn out when `CCCc1noc(COc2cc(C(=O)Nc3ccn(C)n3)cc3c2CC(C)(C)O3)n1` [Example 100, 2,2-Dimethyl-4-(3-propyl-[1,2,4]oxadiazol-5-ylmethoxy)-2,3-dihydro-benzofuran-6-carboxylic acid (1-methyl-1H-pyrazol-3-yl)-amide] was run?
Answer: 171%

Question: And the EC50?
Answer: 1600 nM

Question: What about the Emax of the same compound?
Answer: 156%

Question: `Cc1ccc(NC(=O)c2cc(Oc3ccc(S(C)(=O)=O)cc3)c3c(C)csc3c2)nc1` [Example 350, 3-Methyl-N-(5-methylpyridin-2-yl)-4-[4-(methylsulfonyl)-phenoxy]-1-benzothiophene-6-carboxamide] was tested. Which activation at 10 µM did it give?
Answer: 11.2%

Question: How did the activation at 10 µM turn out when `Cc1ccc(NC(=O)c2cc(Oc3ccc(C(=O)N(C)C)c(F)c3)c3c(c2)OC(C)(C)C3)nc1` [Example 148, 4-(4-Dimethylcarbamoyl-3-fluoro-phenoxy)-2,2-dimethyl-2,3-dihydro-benzofuran-6-carboxylic acid (5-methyl-pyridin-2-yl)-amide] was run?
Answer: 49.5%

Question: And the EC50?
Answer: 42.8 nM

Question: And the Emax?
Answer: 53%

Question: What does the source list for `Cc1ncccc1COc1cc(C(=O)Nc2ccn(C)n2)cc2c1CC(C)(C)O2` [Example 106, 2,2-Dimethyl-4-(2-methyl-pyridin-3-ylmethoxy)-2,3-dihydro-benzofuran-6-carboxylic acid (1-methyl-1H-pyrazol-3-yl)-amide]?
Answer: activation at 10 µM: 143%; EC50: 2400 nM; Emax: 141%

Question: Which results are given for `Cc1ccc(NC(=O)c2cc(Oc3ccc(S(C)(=O)=O)cc3)c3cc(CO)oc3c2)nc1` [Example 316, 2-(Hydroxymethyl)-N-(5-methylpyridin-2-yl)-4-(4-(methylsulfonyl)-phenoxy)benzofuran-6-carboxamide]?
Answer: activation at 10 µM: 73.7%; EC50: 410 nM; Emax: 78%
